The supplement of paper PMC4862054

Legend:
Conditions in all cases: incubation time: 72 h
DU-4475 [1] = assay: normalised viability (% of control), CellTiter-Blue; higher = more viable cells (about 100 = DMSO control)
Protocol: (§1)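 DSRT, CellTiter-Blue viability, 72 h incubation. Signal is normalised to DMSO and benzethonium chloride controls. Value is the normalised response at dose 9.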

HDQ-P1 [2] = assay: as above
Protocol: as §1

CAL-148 [3] = assay: as above
Protocol: as §1

CAL-51 [4] = assay: as above
Protocol: as §1

MDA-MB-453 [5] = assay: as above
Protocol: as §1

CAL-85-1 [6] = assay: as above
Protocol: as §1

DU-4475 [7] = assay: as above; remark: listed apart in the source
Protocol: (§2)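 DSRT, CellTiter-Blue viability, 72 h incubation. Signal is normalised to DMSO and benzethonium chloride controls. Value is the normalised response at dose 8.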

HDQ-P1 [8] = assay: as above; remark: listed apart in the source
Protocol: as §2

CAL-148 [9] = assay: as above; remark: listed apart in the source
Protocol: as §2

CAL-51 [10] = assay: as above; remark: listed apart in the source
Protocol: as §2

MDA-MB-453 [11] = assay: as above; remark: listed apart in the source
Protocol: as §2

CAL-85-1 [12] = assay: as above; remark: listed apart in the source
Protocol: as §2

BT-474 = assay: drug sensitivity score (DSS), CellTiter-Blue viability (DSS (AUC-based score)); higher = stronger viability inhibition; extreme values may be limits of the assay
Protocol: (§3)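 DSRT with the CellTiter-Blue (resazurin reduction) viability readout, fluorescence 560/590 nm, 72 h incubation. Plates were normalised to DMSO and benzethonium chloride controls. DSS is computed from the area under the fitted dose-response curve (5 or 9 concentrations).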

DU-4475 [13] = assay: as above
Protocol: as §3

HCC1599 = assay: as above
Protocol: as §3

MDA-MB-231 = assay: as above
Protocol: as §3

BT-549 = assay: as above
Protocol: as §3

HDQ-P1 [14] = assay: as above
Protocol: as §3

CAL-120 = assay: as above
Protocol: as §3

CAL-148 [15] = assay: as above
Protocol: as §3

CAL-51 [16] = assay: as above
Protocol: as §3

MFM-223 = assay: as above
Protocol: as §3

MDA-MB-453 [17] = assay: as above
Protocol: as §3

CAL-85-1 [18] = assay: as above
Protocol: as §3

HCC1143 = assay: as above
Protocol: as §3

SK-BR-3 = assay: as above
Protocol: as §3

MDA-MB-468 = assay: as above
Protocol: as §3

C1CN1c1nc(N2CC2)nc(N2CC2)n1 [Triethylenemelamine]
normalised viability (DU-4475 [1]; 10000 nM): 95.9%
normalised viability (HDQ-P1 [2]; 10000 nM): 101%
normalised viability (CAL-148 [3]; 10000 nM): 80%
normalised viability (CAL-51 [4]; 10000 nM): 60.5%
normalised viability (MDA-MB-453 [5]; 10000 nM): 40.9%
normalised viability (CAL-85-1 [6]; 10000 nM): 72.8%
normalised viability (DU-4475 [7]; 3000 nM): 98.7%
normalised viability (HDQ-P1 [8]; 3000 nM): 107%
normalised viability (CAL-148 [9]; 3000 nM): 85.6%
normalised viability (CAL-51 [10]; 3000 nM): 109%
normalised viability (MDA-MB-453 [11]; 3000 nM): 113%
normalised viability (CAL-85-1 [12]; 3000 nM): 104%
drug sensitivity score (BT-474): 0
drug sensitivity score (DU-4475 [13]): 0
drug sensitivity score (HCC1599): 0
drug sensitivity score (MDA-MB-231): 2.85
drug sensitivity score (BT-549): 1.53
drug sensitivity score (HDQ-P1 [14]): 0
drug sensitivity score (CAL-120): 0
drug sensitivity score (CAL-148 [15]): 0.801
drug sensitivity score (CAL-51 [16]): 0
drug sensitivity score (MFM-223): 0
drug sensitivity score (MDA-MB-453 [17]): 1.28
drug sensitivity score (CAL-85-1 [18]): 0
drug sensitivity score (HCC1143): 0
drug sensitivity score (SK-BR-3): 0
drug sensitivity score (MDA-MB-468): 0

COc1cc([C@@H]2c3cc4c(cc3[C@@H](O[C@@H]3O[C@@H]5CO[C@@H](c6cccs6)O[C@H]5[C@H](O)[C@H]3O)[C@H]3COC(=O)[C@H]23)OCO4)cc(OC)c1O [Teniposide]
normalised viability (DU-4475 [1]; 10000 nM): -1.93%
normalised viability (HDQ-P1 [2]; 10000 nM): 53.2%
normalised viability (CAL-148 [3]; 10000 nM): 0.81%
normalised viability (CAL-51 [4]; 10000 nM): 3.14%
normalised viability (MDA-MB-453 [5]; 10000 nM): 30.6%
normalised viability (CAL-85-1 [6]; 10000 nM): 26.4%
normalised viability (DU-4475 [7]; 3000 nM): 2.12%
normalised viability (HDQ-P1 [8]; 3000 nM): 67.3%
normalised viability (CAL-148 [9]; 3000 nM): 9.86%
normalised viability (CAL-51 [10]; 3000 nM): 12.6%
normalised viability (MDA-MB-453 [11]; 3000 nM): 52.4%
normalised viability (CAL-85-1 [12]; 3000 nM): 41%
drug sensitivity score (BT-474): 1.44
drug sensitivity score (DU-4475 [13]): 28
drug sensitivity score (HCC1599): 8.13
drug sensitivity score (MDA-MB-231): 7.47
drug sensitivity score (BT-549): 9.11
drug sensitivity score (HDQ-P1 [14]): 4.07
drug sensitivity score (CAL-120): 11.2
drug sensitivity score (CAL-148 [15]): 18.5
drug sensitivity score (CAL-51 [16]): 22.2
drug sensitivity score (MFM-223): 7.43
drug sensitivity score (MDA-MB-453 [17]): 6.23
drug sensitivity score (CAL-85-1 [18]): 8.14
drug sensitivity score (HCC1143): 11.7
drug sensitivity score (SK-BR-3): 21.4
drug sensitivity score (MDA-MB-468): 10.9

CC[C@H](Nc1ncnc2[nH]cnc12)c1nc2cccc(F)c2c(=O)n1-c1ccccc1 [CAL-101]
normalised viability (DU-4475 [1]; 10000 nM): -0.99%
normalised viability (HDQ-P1 [2]; 10000 nM): 61.3%
normalised viability (CAL-148 [3]; 10000 nM): 88.1%
normalised viability (CAL-51 [4]; 10000 nM): 57.3%
normalised viability (MDA-MB-453 [5]; 10000 nM): 67.4%
normalised viability (CAL-85-1 [6]; 10000 nM): 47.5%
normalised viability (DU-4475 [7]; 3000 nM): 104%
normalised viability (HDQ-P1 [8]; 3000 nM): 80.7%
normalised viability (CAL-148 [9]; 3000 nM): 83.3%
normalised viability (CAL-51 [10]; 3000 nM): 89.3%
normalised viability (MDA-MB-453 [11]; 3000 nM): 79.5%
normalised viability (CAL-85-1 [12]; 3000 nM): 76.8%
drug sensitivity score (BT-474): 0
drug sensitivity score (DU-4475 [13]): 2.91
drug sensitivity score (HCC1599): 3.9
drug sensitivity score (MDA-MB-231): 0
drug sensitivity score (BT-549): 1.74
drug sensitivity score (HDQ-P1 [14]): 2.23
drug sensitivity score (CAL-120): 1.02
drug sensitivity score (CAL-148 [15]): 0
drug sensitivity score (CAL-51 [16]): 0
drug sensitivity score (MFM-223): 0
drug sensitivity score (MDA-MB-453 [17]): 2.74
drug sensitivity score (CAL-85-1 [18]): 0
drug sensitivity score (HCC1143): 1.48
drug sensitivity score (SK-BR-3): 2.96
drug sensitivity score (MDA-MB-468): 2.46

CC(=O)Nc1cccc(-n2c(=O)n(C3CC3)c(=O)c3c(Nc4ccc(I)cc4F)n(C)c(=O)c(C)c32)c1
normalised viability (DU-4475 [1]; 250 nM): -1.53%
normalised viability (HDQ-P1 [2]; 250 nM): 63.6%
normalised viability (CAL-148 [3]; 250 nM): 87.6%
normalised viability (CAL-51 [4]; 250 nM): 60.5%
normalised viability (MDA-MB-453 [5]; 250 nM): 50.9%
normalised viability (CAL-85-1 [6]; 250 nM): 31.2%
normalised viability (DU-4475 [7]; 75 nM): -1.23%
normalised viability (HDQ-P1 [8]; 75 nM): 47.9%
normalised viability (CAL-148 [9]; 75 nM): 85.2%
normalised viability (CAL-51 [10]; 75 nM): 73.3%
normalised viability (MDA-MB-453 [11]; 75 nM): 72.8%
normalised viability (CAL-85-1 [12]; 75 nM): 38.8%
drug sensitivity score (BT-474): 0
drug sensitivity score (DU-4475 [13]): 39.6
drug sensitivity score (HCC1599): 8.87
drug sensitivity score (MDA-MB-231): 21.7
drug sensitivity score (BT-549): 0
drug sensitivity score (HDQ-P1 [14]): 12.7
drug sensitivity score (CAL-120): 8.88
drug sensitivity score (CAL-148 [15]): 0
drug sensitivity score (CAL-51 [16]): 7.72
drug sensitivity score (MFM-223): 0
drug sensitivity score (MDA-MB-453 [17]): 6.65
drug sensitivity score (CAL-85-1 [18]): 12.1
drug sensitivity score (HCC1143): 9.72
drug sensitivity score (SK-BR-3): 0
drug sensitivity score (MDA-MB-468): 2.67

COc1cc2c(Oc3ccc4[nH]c(C)cc4c3F)ncnc2cc1OCCCN1CCCC1 [Cediranib]
normalised viability (DU-4475 [1]; 1000 nM): 83.4%
normalised viability (HDQ-P1 [2]; 1000 nM): 94.6%
normalised viability (CAL-148 [3]; 1000 nM): 113%
normalised viability (CAL-51 [4]; 1000 nM): 74.1%
normalised viability (MDA-MB-453 [5]; 1000 nM): 77.9%
normalised viability (CAL-85-1 [6]; 1000 nM): 102%
normalised viability (DU-4475 [7]; 300 nM): 98.8%
normalised viability (HDQ-P1 [8]; 300 nM): 88.3%
normalised viability (CAL-148 [9]; 300 nM): 101%
normalised viability (CAL-51 [10]; 300 nM): 90.7%
normalised viability (MDA-MB-453 [11]; 300 nM): 86.2%
normalised viability (CAL-85-1 [12]; 300 nM): 103%
drug sensitivity score (BT-474): 0
drug sensitivity score (DU-4475 [13]): 0
drug sensitivity score (HCC1599): 0
drug sensitivity score (MDA-MB-231): 0
drug sensitivity score (BT-549): 0
drug sensitivity score (HDQ-P1 [14]): 0
drug sensitivity score (CAL-120): 0
drug sensitivity score (CAL-148 [15]): 0
drug sensitivity score (CAL-51 [16]): 0
drug sensitivity score (MFM-223): 0
drug sensitivity score (MDA-MB-453 [17]): 0
drug sensitivity score (CAL-85-1 [18]): 0
drug sensitivity score (HCC1143): 0
drug sensitivity score (SK-BR-3): 0
drug sensitivity score (MDA-MB-468): 0

O=C(/C=C/c1cccnc1)NCCCCC1CCN(C(=O)c2ccccc2)CC1 [FK-866]
normalised viability (DU-4475 [1]; 1000 nM): 3.53%
normalised viability (HDQ-P1 [2]; 1000 nM): 58.5%
normalised viability (CAL-148 [3]; 1000 nM): 44.2%
normalised viability (CAL-51 [4]; 1000 nM): 34%
normalised viability (MDA-MB-453 [5]; 1000 nM): 19.9%
normalised viability (CAL-85-1 [6]; 1000 nM): 49.2%
normalised viability (DU-4475 [7]; 300 nM): 2.9%
normalised viability (HDQ-P1 [8]; 300 nM): 51.6%
normalised viability (CAL-148 [9]; 300 nM): 45.6%
normalised viability (CAL-51 [10]; 300 nM): 34.6%
normalised viability (MDA-MB-453 [11]; 300 nM): 22.4%
normalised viability (CAL-85-1 [12]; 300 nM): 54%
drug sensitivity score (BT-474): 9.11
drug sensitivity score (DU-4475 [13]): 19.8
drug sensitivity score (HCC1599): 18.7
drug sensitivity score (MDA-MB-231): 15.6
drug sensitivity score (BT-549): 23.9
drug sensitivity score (HDQ-P1 [14]): 9.7
drug sensitivity score (CAL-120): 19.4
drug sensitivity score (CAL-148 [15]): 9.58
drug sensitivity score (CAL-51 [16]): 14.5
drug sensitivity score (MFM-223): 23.9
drug sensitivity score (MDA-MB-453 [17]): 27.2
drug sensitivity score (CAL-85-1 [18]): 9.18
drug sensitivity score (HCC1143): 22.2
drug sensitivity score (SK-BR-3): 0
drug sensitivity score (MDA-MB-468): 30.1
